These results are taken from patent US10519152B2, “Compounds and their use in treating cancer” (AstraZeneca AB, priority 2017, dated 2019).

The experiment concerns the target T1, recombinant human Estrogen Receptor alpha ligand binding domain, residues 307-554 (ER alpha-LBD (GST)) (Homo sapiens, UniProt P03372).
T1 construct: made in house
T1 sequence (P03372 307-554): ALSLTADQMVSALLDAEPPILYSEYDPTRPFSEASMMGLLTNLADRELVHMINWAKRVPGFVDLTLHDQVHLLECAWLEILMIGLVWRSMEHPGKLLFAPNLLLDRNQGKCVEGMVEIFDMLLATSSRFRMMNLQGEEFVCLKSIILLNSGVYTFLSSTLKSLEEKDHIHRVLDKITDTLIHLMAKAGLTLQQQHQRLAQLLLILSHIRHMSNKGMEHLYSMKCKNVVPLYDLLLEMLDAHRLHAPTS
Nature of the experiment: ERα binding assay (LanthaScreen TR-FRET competition). The following applies: TR-FRET competition with Fluormone ES2 tracer, 4 hours at room temperature; single experiment or average of two or more. (TR-FRET usually uses a lanthanide donor and a delayed reading to cut background.)
For the compound `Cc1ncsc1-c1ccc(CNC(=O)[C@@H]2C[C@@H](O)CN2C(=O)[C@@H](NC(=O)CCCCCCCCCCOc2cc(F)c([C@@H]3c4[nH]c5ccccc5c4C[C@@H](C)N3CC(C)(C)F)c(F)c2)C(C)(C)C)cc1` [Example 32, (2S,4R)-1-((S)-2-(11-(3,5-Difluoro-4-((1R,3R)-2-(2-fluoro-2-methylpropyl)-3-methyl-2,3,4,9-tetrahydro-1H-pyrido[3,4-b]indol-1-yl)phenoxy)undecanamido)-3,3-dimethylbutanoyl)-4-hydroxy-N-(4-(4-methylthiazol-5-yl)benzyl)pyrrolidine-2-carboxamide], the 50% inhibitory concentration (IC50) was found to be 2.3 nM.

For the compound `Cc1ncsc1-c1ccc(CNC(=O)C2CC(O)CN2C(=O)C(NC(=O)COCCOc2cc(F)c(C3c4[nH]c5ccccc5c4CC(C)N3CC(C)(C)F)c(F)c2)C(C)(C)C)cc1` [Example 40, (2S,4R)-1-((S)-2-(2-(2-(3,5-Difluoro-4-((1R,3R)-2-(2-fluoro-2-methylpropyl)-3-methyl-2,3,49-tetrahydro-1H-pyrido[3,4-b]indol-1-yl)phenoxy)ethoxy)acetamido)-3,3-dimethylbutanoyl)-4-hydroxy-N-(4-(4-methylthiazol-5-yl)benzyl)pyrrolidine-2-carboxamide], the IC50 stood at 1.3 nM.

Take `Cc1ncsc1-c1ccc(CNC(=O)[C@@H]2C[C@@H](O)CN2C(=O)[C@@H](NC(=O)CCCOc2ccc(COc3cc(F)c([C@@H]4c5[nH]c6ccccc6c5C[C@@H](C)N4CC(C)(C)F)c(F)c3)nc2)C(C)(C)C)cc1` [Example 161, (2S,4R)-1-((S)-2-(4-((6-((3,5-Difluoro-4-((1R,3R)-2-(2-fluoro-2-methylpropyl)-3-methyl-2,3,4,9-tetrahydro-1H-pyrido[3,4-b]indol-1-yl)phenoxy)methyl)pyridin-3-yl)oxy)butanamido)-3,3-dimethylbutanoyl)-4-hydroxy-N-(4-(4-methylthiazol-5-yl)benzyl)pyrrolidine-2-carboxamide]: the half-inhibitory concentration (IC50) was 0.7 nM.

Turning to `Cc1ncsc1-c1ccc(CNC(=O)[C@@H]2C[C@@H](O)CN2C(=O)[C@@H](NC(=O)COc2cccc(COc3cc(F)c([C@@H]4c5[nH]c6ccccc6c5C[C@@H](C)N4CC(C)(C)F)c(F)c3)c2)C(C)(C)C)cc1` [Example 20, (2S,4R)-1-((S)-2-(2-(3-((3,5-difluoro-4-((1R,3R)-2-(2-fluoro-2-methylpropyl)-3-methyl-2,3,4,9-tetrahydro-1H-pyrido[3,4-b]indol-1-yl)phenoxy)methyl)phenoxy)acetamido)-3,3-dimethylbutanoyl)-4-hydroxy-N-(4-(4-methylthiazol-5-yl)benzyl)pyrrolidine-2-carboxamide], the IC50 was determined as 1 nM.

For `Cc1ncsc1-c1ccc(CNC(=O)[C@@H]2C[C@@H](O)CN2C(=O)[C@@H](NC(=O)COCCCCC(=O)NCCOc2cc(F)c([C@@H]3c4[nH]c5ccccc5c4C[C@@H](C)N3CC(C)(C)F)c(F)c2)C(C)(C)C)cc1` [Example 142, (2S,4R)-1-((S)-2-(2-((5-((2-(3,5-Difluoro-4-((1R,3R)-2-(2-fluoro-2-methylpropyl)-3-methyl-2,3,4,9-tetrahydro-1H-pyrido[3,4-b]indol-1-yl)phenoxy)ethyl)amino)-5-oxopentyl)oxy)acetamido)-3,3-dimethylbutanoyl)-4-hydroxy-N-(4-(4-methylthiazol-5-yl)benzyl)pyrrolidine-2-carboxamide], the IC50 was 1.1 nM.

As for `Cc1ncsc1-c1ccc(CNC(=O)[C@@H]2C[C@@H](O)CN2C(=O)[C@@H](NC(=O)COCCOCCCCCOc2cc(F)c([C@@H]3c4[nH]c5ccccc5c4C[C@@H](C)N3CC(F)F)c(F)c2)C(C)(C)C)cc1` [Example 167, (2S,4R)-1-((S)-2-(2-(2-((5-(4-((1R,3R)-2-(2,2-Difluoroethyl)-3-methyl-2,3,4,9-tetrahydro-1H-pyrido[3,4-b]indol-1-yl)-3,5-difluorophenoxy)pentyl)oxy)ethoxy)acetamido)-3,3-dimethylbutanoyl)-4-hydroxy-N-(4-(4-methylthiazol-5-yl)benzyl)pyrrolidine-2-carboxamide], the half-inhibitory concentration (IC50) was 0.9 nM.

Turning to `Cc1ncsc1-c1ccc(CNC(=O)[C@@H]2C[C@@H](O)CN2C(=O)[C@@H](NC(=O)COCCCCCOCCOc2ccc([C@@H]3c4[nH]c5ccccc5c4C[C@@H](C)N3CC(F)F)nc2)C(C)(C)C)cc1` [Example 10, (2S,4R)-1-((S)-2-(2-((5-(2-((6-((1S,3R)-2-(2,2-Difluoroethyl)-3-methyl-2,3,4,9-tetrahydro-1H-pyrido[3,4-b]indol-1-yl)pyridin-3-yl)oxy)ethoxy)pentyl)oxy)acetamido)-3,3-dimethylbutanoyl)-4-hydroxy-N-(4-(4-methylthiazol-5-yl)benzyl)pyrrolidine-2-carboxamide], the 50% inhibitory concentration (IC50) was found to be 39 nM.

With `COC(=O)[C@@H](C)CN1[C@H](c2c(F)cc(OCCOCCOCCOCC(=O)N[C@H](C(=O)N3C[C@H](O)C[C@H]3C(=O)NCc3ccc(-c4scnc4C)cc3)C(C)(C)C)cc2F)c2[nH]c3ccccc3c2C[C@H]1C` [Example 29], the IC50 is 5.9 nM.

With `Cc1ncsc1-c1ccc(CNC(=O)[C@@H]2C[C@@H](O)CN2C(=O)[C@@H](NC(=O)COCCCCOCCOc2cc(F)c([C@@H]3c4[nH]c5ccccc5c4C[C@@H](C)N3CC(C)(C)F)c(F)c2)C(C)(C)C)cc1` [Example 16, (2S,4R)-1-((S)-2-(2-(4-(2-(3,5-Difluoro-4-((1R,3R)-2-(2-fluoro-2-methylpropyl)-3-methyl-2,3,4,9-tetrahydro-1H-pyrido[3,4-b]indol-1-yl)phenoxy)ethoxy)butoxy)acetamido)-3,3-dimethylbutanoyl)-4-hydroxy-N-(4-(4-methylthiazol-5-yl)benzyl)pyrrolidine-2-carboxamide], the concentration for half-maximal inhibition (IC50) was 0.8 nM.

With `Cc1ncsc1-c1ccc(CNC(=O)[C@@H]2C[C@@H](O)CN2C(=O)[C@@H](NC(=O)COCCCCCNCCOc2cc(F)c([C@@H]3c4[nH]c5ccccc5c4C[C@@H](C)N3CC(C)(C)F)c(F)c2)C(C)(C)C)cc1` [Example 48, (2S,4R)-1-((S)-2-(2-((5-((2-(3,5-difluoro-4-((1R,3R)-2-(2-fluoro-2-methylpropyl)-3-methyl-2,3,4,9-tetrahydro-1H-pyrido[3,4-b]indol-1-yl)phenoxy)ethyl)amino)pentyl)oxy)acetamido)-3,3-dimethylbutanoyl)-4-hydroxy-N-(4-(4-methylthiazol-5-yl)benzyl)pyrrolidine-2-carboxamide], the 50% inhibitory concentration (IC50) stood at 1 nM.

For `Cc1ncsc1-c1ccc(CNC(=O)[C@@H]2C[C@@H](O)CN2C(=O)[C@@H](NC(=O)COCCCOCCOc2ccc([C@@H]3c4[nH]c5ccccc5c4C[C@@H](C)N3CC(F)F)nc2)C(C)(C)C)cc1` [Example 26, (2S,4R)-1-((S)-2-(2-(3-(2-((6-((1S,3R)-2-(2,2-Difluoroethyl)-3-methyl-2,3,4,9-tetrahydro-1H-pyrido[3,4-b]indol-1-yl)pyridin-3-yl)oxy)ethoxy)propoxy)acetamido)-3,3-dimethylbutanoyl)-4-hydroxy-N-(4-(4-methylthiazol-5-yl)benzyl)pyrrolidine-2-carboxamide], the IC50 was 25 nM.

Take `Cc1ncsc1-c1ccc([C@@H](CN)NC(=O)[C@@H]2C[C@@H](O)CN2C(=O)[C@@H](NC(=O)COCCOCCOCCOc2cc(F)c([C@@H]3c4[nH]c5ccccc5c4C[C@@H](C)N3CC(C)(C)F)c(F)c2)C(C)(C)C)cc1` [Example 106, (2S,4R)—N-[(1S)-2-amino-1-[4-(4-methylthiazol-5-yl)phenyl]ethyl]-1-[(2S)-2-[[2-[2-[2-[2-[3,5-difluoro-4-[(1R,3R)-2-(2-fluoro-2-methyl-propyl)-3-methyl-1,3,4,9-tetrahydropyrido[3,4-b]indol-1-yl]phenoxy]ethoxy]ethoxy]ethoxy]acetyl]amino]-3,3-dimethyl-butanoyl]-4-hydroxy-pyrrolidine-2-carboxamide]: the IC50 turned out to be 0.8 nM.

On to `Cc1ncsc1-c1ccc(CNC(=O)[C@@H]2C[C@@H](O)CN2C(=O)[C@@H](NC(=O)COCCCCCN(C)CCOc2cc(F)c([C@@H]3c4[nH]c5ccccc5c4C[C@@H](C)N3CC(C)(C)F)c(F)c2)C(C)(C)C)cc1` [Example 49, (2S,4R)-1-((S)-2-(2-((5-((2-(3,5-difluoro-4-((1R,3R)-2-(2-fluoro-2-methylpropyl)-3-methyl-2,3,4,9-tetrahydro-1H-pyrido[3,4-b]indol-1-yl)phenoxy)ethyl)(methyl)amino)pentyl)oxy)acetamido)-3,3-dimethylbutanoyl)-4-hydroxy-N-(4-(4-methylthiazol-5-yl)benzyl)pyrrolidine-2-carboxamide], for which the concentration for half-maximal inhibition (IC50) is 1 nM.

As to `Cc1ncsc1-c1ccc(CNC(=O)[C@@H]2C[C@@H](O)CN2C(=O)[C@@H](NC(=O)COCCCCCCCCOc2cc(F)c([C@@H]3c4[nH]c5ccccc5c4C[C@@H](C)N3CC(C)(C)F)c(F)c2)C(C)(C)C)cc1` [Example 12, (2S,4R)-1-((S)-2-(2-((8-(3,5-Difluoro-4-((1R,3R)-2-(2-fluoro-2-methylpropyl)-3-methyl-2,3,4,9-tetrahydro-1H-pyrido[3,4-b]indol-1-yl)phenoxy)octyl)oxy)acetamido)-3,3-dimethylbutanoyl)-4-hydroxy-N-(4-(4-methylthiazol-5-yl)benzyl)pyrrolidine-2-carboxamide], the half-inhibitory concentration (IC50) came out at 1.6 nM.

As to `Cc1ncsc1-c1ccc(CNC(=O)[C@@H]2C[C@@H](O)CN2C(=O)[C@@H](NC(=O)COCCOCCCCOc2cc(F)c([C@@H]3c4[nH]c5ccccc5c4C[C@@H](C)N3CC(C)(C)F)c(F)c2)C(C)(C)C)cc1` [Example 128, (2S,4R)-1-((S)-2-(2-(2-(4-(3,5-Difluoro-4-((1R,3R)-2-(2-fluoro-2-methylpropyl)-3-methyl-2,3,4,9-tetrahydro-1H-pyrido[3,4-b]indol-1-yl)phenoxy)butoxy)ethoxy)acetamido)-3,3-dimethylbutanoyl)-4-hydroxy-N-(4-(4-methylthiazol-5-yl)benzyl)pyrrolidine-2-carboxamide], the IC50 is 0.6 nM.

One may read the IC50 as the concentration that inhibits the measured activity by half.
